Results as given in patent US12037350B2, “Compositions and methods for the prevention and/or treatment of mitochondrial disease, including Friedreich's ataxia” (Stealth BioTherapeutics Inc., priority 2020, dated 2024).
“Also recorded” adds a separate entry of the source.

Assays:
[1] = system: GM03665 cells (fibroblasts from a subject with Friedreich's ataxia); experiment: RSL-3 Toxicity Assay (RSL-3 Assay); assay type: cell-based, human; conditions: for EC50: Homo sapiens, Fibroblast
Text: Example 14: RSL-3 Toxicity Assay (RSL-3 Assay)
This assay has been adapted from: Hinman, A., Holst, C. R., Latham, J. C., Bruegger, J. J., Ulas, G., McCusker, K. P., Amagata, A., Davis, D., Hoff, K. G., Kahn-Kirby, A. H., Kim, V., Kosaka, Y., Lee, E., Malone, S. A., Mei, J. J., Richards, S. J., Rivera, V., Miller, G., Trimmer, J. K., Shrader, W. D., “Vitamin E hydroquinone is an endogenous regulator of ferroptosis via redox control of 15-lipoxygenase”, (2018) PLoS ONE 13(8): e0201369.
In brief, GM03665 cells (Coriell Institute) were seeded in 96-well plates (Sarstedt) in DMEM cell culture media containing 10% Fetal Bovine serum and 1% Penicillin-Streptomycin (Pen-Strep) antibiotic mix at the amount of 2×10^4/mL (100 μL or 2×10^3 cells per well). Cells were left to rest overnight at 37° C. in a humidified atmosphere with 5% CO2 to allow attachment of the cells to the culture plate. Test compounds were prepared as DMSO stocks (10 mM) and were serially diluted in cell culture media to obtain 2× working solutions. Cell media was discarded and replaced by 50 μL of test compound solutions or cell media with vehicle for control wells. Within 15 minutes, 2× working solution (4 μM) of 1S,3R-RSL-3 (CAS #1219810-16-8, Sigma-Aldrich) (diluted from 5 mM DMSO stock in cell culture media) was added. Final reaction volume was 100 μL and final DMSO concentration in reaction was kept below 0.2% (v/v) and equal in all wells. Final RSL-3 concentration was 2 μM and test compound final concentrations in reaction were up to 1000 nM. After 24 hours of incubation cell viability was assessed by MTT test. MTT (Sigma-Aldrich) solution 1 mg/mL in IX PBS (pH=7.4) was prepared 1 hour before the assay and filtered through Filtropur S 0.2 filters (Sarstedt). Cell media with test compounds was discarded and 100 μL of MTT solution was added to cells. The plates were incubated for 2 hours at +37° C. Thereafter, the MTT solution was removed and 100 μL of isopropanol was added to dissolve sediment. Absorption at 570 and 650 nm was measured using Hidex Sense microplate reader.
Compounds A and B and idebenone were not examined in this assay. The data presented in Table 1 indicates omaveloxolone was not active in this assay but that vatiquinone was active.
Discussion—Both BSO and RSL-3 are frequently utilized to induce the regulated cell death pathway known as ferroptosis. Ferroptosis is thought to require the joint activity of iron catalyzed oxidative stress and lipid peroxidation and has been described in cell and animal models of multiple neurodegenerative diseases, including Friedreich's Ataxia, Huntington Disease, Parkinson Disease and Alzheimer's Disease. […] Of note, the results for Compounds C-I and K were favorable with respect to inhibition of ferroptotic cell death when either BSO or RSL3 were used as initiating stimulus, differentiating these compounds from omaveloxolone and idebenone.

HepG2 cells = experiment: Rotenone Oxygraph Assay (high-resolution respirometry of intact HepG2 cells); assay type: cell-based, human; conditions: for activation at 10 µM: Homo sapiens
Protocol: Example 15: Rotenone Oxygraph Assay (High-Resolution Respirometry of Intact HepG2 Cells)
The Oxygraph-2k (O2k, OROBOROS INSTRUMENTS, Austria) was used for measurements of respiration of intact cells. The respirometry was performed in Dulbecco's Modified Eagle Medium (DMEM) high glucose without supplements. All experiments were performed at 37° C.
HepG2 cells (ATCC collection code HB-8065™) were cultured in 10 cm^2 culture dishes in DMEM high glucose medium supplemented with 10% fetal bovine serum (FBS) and 100 units/mL penicillin and 100 μg/mL streptomycin until approximately 90% confluence was reached. Immediately prior to performing the respirometric assay, the cells were washed with media without FBS, trypsinized and resuspended in DMEM high glucose without FBS.
The final concentration of intact cells in the O2k-chamber was 0.5-10^6/mL. After stabilization of respiration, the Complex I inhibitor, rotenone, at 1 μM final concentration was added to inhibit electron flux via Complex I. Then, compound to be tested was added at 10 μM final concentration, and the change in respiration rate of intact cells was monitored. […]

[2] = GM03665 cells, RSL-3 2 μM, 24 hours, MTT
[3] = intact HepG2 cells, rotenone 1 μM, compound 10 μM, increase in respiration rate

| Compound | protection against RSL-3 toxicity (in words) [1] | EC50 [1, 2] | Complex I by-pass activity in Rotenone Oxygraph Assay (in words) (HepG2 cells) | activation at 10 µM (HepG2 cells; [3]) | RSL-3 Assay EC50 [1, 2] | Rotenone Oxygraph Assay % Increase (HepG2 cells; [3]) |
| --- | --- | --- | --- | --- | --- | --- |
| COC1=C(OC)C(=O)C(CCCCF)=C(C)C1=O [Compound J, 2-(4-fluorobutyl)-5,6-dimethoxy-3-methylcyclohexa-2,5-diene-1,4-dione] | essentially inactive | > 1000 nM | not that effective; also recorded: least active | 21.8% |  |  |
| CC1(C)CC[C@]2(NC(=O)C(C)(F)F)CC[C@]3(C)[C@H](C(=O)C=C4[C@@]5(C)C=C(C#N)C(=O)C(C)(C)[C@@H]5CC[C@]43C)[C@@H]2C1 [Omaveloxolone, reference compound] | not active |  | inactive |  | Inactive | Inactive |
| COC1=C(OC)C(=O)C(CCCCCCCCCC(F)(F)F)=C(C)C1=O [Compound C, 2,3-dimethoxy-5-methyl-6-(10,10,10-trifluorodecyl)cyclohexa-2,5-diene-1,4-dione] |  | 110 nM | effective in rescuing cells | 63.9% |  |  |
